Test results as given in patent US7071147B2, “Weed control process” (priority 2001, dated 2006).

How the values were obtained:
[1] = test system: Redroot pigweed (AMARE), normal wild variety (non-tolerant); assay: Glasshouse postemergence herbicide test, percentage damage on normal wild (non-tolerant) plants; assay type: in vivo; conditions: rates of Table 1; 13 days after application
From the text: (§1) The soil was a silty clay loam mixed with fertiliser (12-12-12) at the rate of 128 g fertiliser to 10 gallons of soil.
(§2) The tolerant seeds were planted 13 days earlier than the non-tolerant seeds in order to get the seedlings to a similar size by the time the herbicide was applied. The time difference in planting was based on earlier observations of germination speed. On application of the herbicides, the tolerant plants had reached the 6-9 leaf stage, and the non-tolerant plants the 5-leaf stage.
(§3) Herbicide solutions were made by dissolving the herbicide(s) in tap water containing 0.5% of a commercial surfactant, ‘Tween 20’. The solutions were applied at […] and 40 p.s.i pressure, using an 80015E nozzle. After spraying, the plants were placed in a glasshouse at 29/20° C. day/night temperature and 45/65% day/night relative humidity and a photoperiod of 14 hours.
(§4) The figures in the mesotrione and atrazine columns are g/ha of herbicide applied to the test pots. The figures in the subsequent columns are percentage damage observed 13 days after application of the relevant herbicide composition. The numbers range from 0 (no effect) to 100 (dead plants). The main area of focus for the present invention is the effect on tolerant plants, and the effect on non-tolerant plants was only measured for comparative purposes.

[2] = test system: Redroot pigweed (AMARE), variant known to exhibit triazine tolerance; assay type: in vivo; conditions: 13 days after application; for effect on tolerant plants (in words): rates of Table 1
From the text: as §1, §2, §3, §4

SMILES | effect on non-tolerant plants (in words) [1] | effect on tolerant plants (in words) [2] | damage level on tolerant plants ([2]; 0.90 g/ha mesotrione alone)
CCNc1nc(Cl)nc(NC(C)C)n1 [Atrazine, atrazine] | significantly damaging | no effect at all | –
CS(=O)(=O)c1ccc(C(=O)C2C(=O)CCCC2=O)c([N+](=O)[O-])c1 [mesotrione] | causes damage | causes damage | 2
